Measured values: patent US10987359B2, “Oxadiazepinone derivatives and methods of treating hepatitis B infections” (priority 2016, dated 2021)

tested on: HBV; test: HBV replication inhibition assay (BDNA assay) in HepG2.2.15 cells; assay type: cell-based; details: Hepatitis B virus, HepG2.2.15, HBV replication assay (BDNA assay), HepG2.2.15 cells; read-out: DNA EC50
Summary of the method: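 Supernatant encapsidated HBV DNA was measured by bDNA after DNase digestion and proteinase K release. Stably HBV-integrated HepG2.2.15 cells had two 3-day compound exposures (0.5% DMSO). Signals were background-subtracted and normalized to DMSO wells, and EC50 was obtained by four-parameter fit.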

SMILES | EC50 [nM]
CN1OC(CO)Cn2nc3c(c2C1=O)CN(C(=O)Nc1cc(Cl)c(F)cc1F)CC3 (stereo not drawn) [Compound 013, N-(5-chloro-2,4-difluorophenyl)-4-(hydroxymethyl)-2-methyl-1-oxo-1,4,5,8,9,11-hexahydropyrido[4′,3′:3,4]pyrazolo[5,1-d][1,2,5]oxadiazepine-10(2H)-carboxamide] | 1 to 100
CN1OC(CO)Cn2nc3c(c2C1=O)CN(C(=O)Nc1cc(Br)c(F)cc1F)CC3 (stereo not drawn) [Compound 014, N-(5-bromo-2,4-difluorophenyl)-4-(hydroxymethyl)-2-methyl-1-oxo-1,4,5,8,9,11-hexahydropyrido[4′,3′:3,4]pyrazolo[5,1-d][1,2,5]oxadiazepine-10(2H)-carboxamide] | 1 to 100
CN1OC(CO)Cn2nc3c(c2C1=O)CN(C(=O)Nc1cc(F)c(F)c(Br)c1)CC3 (stereo not drawn) [Compound 015, N-(3-bromo-4,5-difluorophenyl)-4-(hydroxymethyl)-2-methyl-1-oxo-1,4,5,8,9,11-hexahydropyrido[4′,3′:3,4]pyrazolo[5,1-d][1,2,5]oxadiazepine-10(2H)-carboxamide] | 1 to 100
Cc1ccc(C)c(NC(=O)N2CCc3nn4c(c3C2)C(=O)N(C)OC(CO)C4)c1 (stereo not drawn) [Compound 016, N-(2,5-dimethylphenyl)-4-(hydroxymethyl)-2-methyl-1-oxo-1,4,5,8,9,11-hexahydropyrido[4′,3′:3,4]pyrazolo[5,1-d][1,2,5]oxadiazepine-10(2H)-carboxamide] | 1 to 100
Cc1ccc(Br)cc1NC(=O)N1CCc2nn3c(c2C1)C(=O)N(C)OC(CO)C3 (stereo not drawn) [Compound 017, N-(5-bromo-2-methylphenyl)-4-(hydroxymethyl)-2-methyl-1-oxo-1,4,5,8,9,11-hexahydropyrido[4′,3′:3,4]pyrazolo[5,1-d][1,2,5]oxadiazepine-10(2H)-carboxamide] | 1 to 100
Cc1cc(F)c(Br)cc1NC(=O)N1CCc2nn3c(c2C1)C(=O)N(C)OC(CO)C3 (stereo not drawn) [Compound 018, N-(5-bromo-4-fluoro-2-methylphenyl)-4-(hydroxymethyl)-2-methyl-1-oxo-1,4,5,8,9,11-hexahydropyrido[4′,3′:3,4]pyrazolo[5,1-d][1,2,5]oxadiazepine-10(2H)-carboxamide] | 1 to 100
CC1CCCC(NC(=O)N2CCc3nn4c(c3C2)C(=O)N(C)OC(CO)C4)C1 (stereo not drawn) [Compound 019, 4-(hydroxymethyl)-2-methyl-N-(3-methylcyclohexyl)-1-oxo-1,4,5,8,9,11-hexahydropyrido[4′,3′:3,4]pyrazolo[5,1-d][1,2,5]oxadiazepine-10(2H)-carboxamide] | 500 to 1000
CN1OC(CO)Cn2nc3c(c2C1=O)CN(C(=O)Nc1cccc(I)c1)CC3 (stereo not drawn) [Compound 020, 4-(hydroxymethyl)-N-(3-iodophenyl)-2-methyl-1-oxo-1,4,5,8,9,11-hexahydropyrido[4′,3′:3,4]pyrazolo[5,1-d][1,2,5]oxadiazepine-10(2H)-carboxamide] | 1 to 100
CN1OC(CO)Cn2nc3c(c2C1=O)CN(C(=O)Nc1cccc(C(F)F)c1)CC3 (stereo not drawn) [Compound 021, N-(3-(difluoromethyl)phenyl)-4-(hydroxymethyl)-2-methyl-1-oxo-1,4,5,8,9,11-hexahydropyrido[4′,3′:3,4]pyrazolo[5,1-d][1,2,5]oxadiazepine-10(2H)-carboxamide] | 1 to 100
CN1OC(CO)Cn2nc3c(c2C1=O)CN(C(=O)Nc1cc(Cl)c(F)c(C(F)(F)F)c1)CC3 (stereo not drawn) [Compound 022, N-(3-chloro-4-fluoro-5-(trifluoromethyl)phenyl)-4-(hydroxymethyl)-2-methyl-1-oxo-1,4,5,8,9,11-hexahydropyrido[4′,3′:3,4]pyrazolo[5,1-d][1,2,5]oxadiazepine-10(2H)-carboxamide] | 1 to 100
CN1OC(CO)Cn2nc3c(c2C1=O)CN(C(=O)Nc1ccc(F)c(Cl)c1Cl)CC3 (stereo not drawn) [Compound 023, N-(2,3-dichloro-4-fluorophenyl)-4-(hydroxymethyl)-2-methyl-1-oxo-1,4,5,8,9,11-hexahydropyrido[4′,3′:3,4]pyrazolo[5,1-d][1,2,5]oxadiazepine-10(2H)-carboxamide] | 1 to 100
CN1OC(CO)Cn2nc3c(c2C1=O)CN(C(=O)Nc1ccc(Cl)c(Cl)c1F)CC3 (stereo not drawn) [Compound 024, N-(3,4-dichloro-2-fluorophenyl)-4-(hydroxymethyl)-2-methyl-1-oxo-1,4,5,8,9,11-hexahydropyrido[4′,3′:3,4]pyrazolo[5,1-d][1,2,5]oxadiazepine-10(2H)-carboxamide] | 1 to 100
CN1OC(CO)Cn2nc3c(c2C1=O)CN(C(=O)Nc1ccc(Cl)c(C(F)(F)F)c1)CC3 (stereo not drawn) [Compound 025, N-(4-chloro-3-(trifluoromethyl)phenyl)-4-(hydroxymethyl)-2-methyl-1-oxo-1,4,5,8,9,11-hexahydropyrido[4′,3′:3,4]pyrazolo[5,1-d][1,2,5]oxadiazepine-10(2H)-carboxamide] | 1 to 100
Cc1ccc(NC(=O)N2CCc3nn4c(c3C2)C(=O)N(C)OC(CO)C4)cc1Cl (stereo not drawn) [Compound 026, N-(3-chloro-4-methylphenyl)-4-(hydroxymethyl)-2-methyl-1-oxo-1,4,5,8,9,11-hexahydropyrido[4′,3′:3,4]pyrazolo[5,1-d][1,2,5]oxadiazepine-10(2H)-carboxamide] | 1 to 100
CN1OC(CO)Cn2nc3c(c2C1=O)CN(C(=O)Nc1cc(Cl)c(Cl)cc1F)CC3 (stereo not drawn) [Compound 027, N-(4,5-dichloro-2-fluorophenyl)-4-(hydroxymethyl)-2-methyl-1-oxo-1,4,5,8,9,11-hexahydropyrido[4′,3′:3,4]pyrazolo[5,1-d][1,2,5]oxadiazepine-10(2H)-carboxamide] | 1 to 100
CN1OC(CO)Cn2nc3c(c2C1=O)CN(C(=O)Nc1cccc(S(F)(F)(F)(F)F)c1)CC3 (stereo not drawn) [Compound 029, 4-(hydroxymethyl)-2-methyl-1-oxo-N-(3-(pentafluoro-16-sulfanyl)phenyl)-1,4,5,8,9,11-hexahydropyrido[4′,3′:3,4]pyrazolo[5,1-d][1,2,5]oxadiazepine-10(2H)-carboxamide] | 1 to 100
CN1OC(CO)Cn2nc3c(c2C1=O)CN(C(=O)Nc1cccc(Cl)c1)CC3 (stereo not drawn) [Compound 030, N-(3-chlorophenyl)-4-(hydroxymethyl)-2-methyl-1-oxo-1,4,5,8,9,11-hexahydropyrido[4′,3′:3,4]pyrazolo[5,1-d][1,2,5]oxadiazepine-10(2H)-carboxamide] | 1 to 100
CN1OC(CF)Cn2nc3c(c2C1=O)CN(C(=O)Nc1cccc(C(F)(F)F)c1)CC3 (stereo not drawn) [Compound 036, 4-(fluoromethyl)-2-methyl-1-oxo-N-(3-(trifluoromethyl)phenyl)-1,4,5,8,9,11-hexahydropyrido[4′,3′:3,4]pyrazolo[5,1-d][1,2,5]oxadiazepine-10(2H)-carboxamide] | 1 to 100
CN1OC(CO)Cn2nc3c(c2C1=O)CN(C(=O)N(C)c1ccc(F)c(Cl)c1)CC3 (stereo not drawn) [Compound 045, N-(3-chloro-4-fluorophenyl)-4-(hydroxymethyl)-N,2-dimethyl-1-oxo-1,4,5,8,9,11-hexahydropyrido[4′,3′:3,4]pyrazolo[5,1-d][1,2,5]oxadiazepine-10(2H)-carboxamide] | 100 to 500
CN1OC(CO)Cn2nc3c(c2C1=O)CN(C(=O)Nc1cccc(Cl)c1)CC3(C)C (stereo not drawn) [Compound 046, N-(3-chlorophenyl)-4-(hydroxymethyl)-2,8,8-trimethyl-1-oxo-1,4,5,8,9,11-hexahydropyrido[4′,3′:3,4]pyrazolo[5,1-d][1,2,5]oxadiazepine-10(2H)-carboxamide] | 100 to 500
CC1CN(C(=O)Nc2cccc(Cl)c2)Cc2c1nn1c2C(=O)N(C)OC(CO)C1 (stereo not drawn) [Compound 047, N-(3-chlorophenyl)-4-(hydroxymethyl)-2,8-dimethyl-1-oxo-1,4,5,8,9,11-hexahydropyrido[4′,3′:3,4]pyrazolo[5,1-d][1,2,5]oxadiazepine-10(2H)-carboxamide] | 100 to 500
CSCC1Cn2nc3c(c2C(=O)N(C)O1)CN(C(=O)Nc1ccc(F)c(Cl)c1)CC3 (stereo not drawn) [Compound 048, N-(3-chloro-4-fluoro-phenyl)-2-methyl-4-(methylsulfanylmethyl)-1-oxo-5,8,9,11-tetrahydro-4H-pyrido[2,3]pyrazolo[2,4-d][1,2,5]oxadiazepine-10-carboxamide] | 1 to 100
CN1OC(CS(C)(=O)=O)Cn2nc3c(c2C1=O)CN(C(=O)Nc1ccc(F)c(Cl)c1)CC3 (stereo not drawn) [Compound 050, N-(3-chloro-4-fluorophenyl)-2-methyl-4-((methylsulfonyl)methyl)-1-oxo-1,4,5,8,9,11-hexahydropyrido[4′,3′:3,4]pyrazolo[5,1-d][1,2,5]oxadiazepine-10(2H)-carboxamide] | 1 to 100
COC(=O)OCC1Cn2nc3c(c2C(=O)N(C)O1)CN(C(=O)Nc1ccc(F)c(Cl)c1)CC3 (stereo not drawn) [Compound 051, (10-((3-chloro-4-fluorophenyl)carbamoyl)-2-methyl-1-oxo-1,2,4,5,8,9,10,11-octahydropyrido[4′,3′:3,4]pyrazolo[5,1-d][1,2,5]oxadiazepin-4-yl)methyl methyl carbonate] | 1 to 100
CC(=O)OCC1Cn2nc3c(c2C(=O)N(C)O1)CN(C(=O)Nc1ccc(F)c(Cl)c1)CC3 (stereo not drawn) [Compound 052, (10-((3-chloro-4-fluorophenyl)carbamoyl)-2-methyl-1-oxo-1,2,4,5,8,9,10,11-octahydropyrido[4′,3′:3,4]pyrazolo[5,1-d][1,2,5]oxadiazepin-4-yl)methyl acetate] | 1 to 100
CC(C)OC(=O)OCC1Cn2nc3c(c2C(=O)N(C)O1)CN(C(=O)Nc1ccc(F)c(Cl)c1)CC3 (stereo not drawn) [Compound 053, (10-((3-chloro-4-fluorophenyl)carbamoyl)-2-methyl-1-oxo-1,2,4,5,8,9,10,11-octahydropyrido[4′,3′:3,4]pyrazolo[5,1-d][1,2,5]oxadiazepin-4-yl)methyl isopropyl carbonate] | 1 to 100
CN1OC(COC(=O)OC(C)(C)C)Cn2nc3c(c2C1=O)CN(C(=O)Nc1ccc(F)c(Cl)c1)CC3 (stereo not drawn) [Compound 054, tert-butyl ((10-((3-chloro-4-fluorophenyl)carbamoyl)-2-methyl-1-oxo-1,2,4,5,8,9,10,11-octahydropyrido[4′,3′:3,4]pyrazolo[5,1-d][1,2,5]oxadiazepin-4-yl)methyl) carbonate] | 1 to 100
